These results are taken from patent publication US20050234652A1, “Nuclear magnetic resonance-docking of compounds” (Triad Therapeutics, Inc., priority 2001, published 2005).

This assay addresses T1, DHPR (Escherichia coli, UniProt P04036).
T1 construct: made in house; host or cells: E. coli BL21 (DE3) Gold
The experiment in a line: binding of ligands to DHPR (dissociation constants). Further details: species or system E. coli. The text has this: The resonance assignments for DHPR residues Thr80, Thr104 and Met17 were obtained as follows. Differential chemical shift perturbation was observed by comparing the spectra of MIT-DHPR bound to 2,6-pyridinedicarboxylate (PDC) and the spectra of MIT-DHPR bound to 4-Cl PDC. Distinct changes in chemical shift for only one of the methionine ^13C^ε/^1H^ε resonances was detected, which therefore identified the signals as being associated with M17 as shown in FIG. 1D. Both PDC and 4-Cl PDC bound to DHPR with micromolar dissociation constants, so that, at the concentrations used, the protein was saturated in both samples. Therefore, the resultant chemical shift differences originate solely from the small perturbation introduced by binding slightly different ligands. Similarly, resonance assignments were obtained for residues T104 and […] with differential chemical shifts comparing spectra obtained for complexes formed with NADH and 3-acetyl pyridine NADH.

T1 sequence (P04036 whole entry): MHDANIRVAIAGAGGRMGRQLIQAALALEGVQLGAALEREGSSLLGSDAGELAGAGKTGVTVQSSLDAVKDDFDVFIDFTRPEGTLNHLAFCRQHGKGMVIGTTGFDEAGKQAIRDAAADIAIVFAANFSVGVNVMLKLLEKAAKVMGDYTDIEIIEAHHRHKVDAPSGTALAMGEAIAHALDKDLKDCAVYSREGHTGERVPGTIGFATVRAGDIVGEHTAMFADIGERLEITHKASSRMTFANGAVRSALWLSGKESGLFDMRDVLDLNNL

With `O=C(O)c1cccc(C(=O)O)n1` [PDC, 2,6-pyridinedicarboxylate], the dissociation constants result is given as “micromolar”.

Consider `O=C(O)c1cc(Cl)cc(C(=O)O)n1` [4-Cl PDC], for which the dissociation constants entry is listed as “micromolar”.
